Data on 5 molecules can be found in patent US6939850B2, “Altered human interleukin-1β convertase (ICE), NEDD-2, and C. elegans ced-3 polypeptides and uses therefor” (Massachusetts Institute of Technology, priority 1992, dated 2005).

The test system of assay [1] is lumbar motoneurons. The assay is described as follows: Naturally occurring lumbar motoneuron cell death in vivo. The settings on record: mean ±SD; for Pyknotic Lumbar Motoneurons on E8: 15 hours post treatment, single administration of 400 μg on E8; for Healthy Motoneurons (lumbar) on E9 / Pyknotic Motoneurons (lumbar) on E9: 24 hours post treatment. More on the design: species or system chick. How it is done:
In the first model, embryos were treated with a single dose of an ICE inhibitor or control protease inhibitor on embryonic day 8 (E8), the time of maximum naturally occurring motoneuron cell death (Hamburger et al., J. Morph. 88:49-92 (1951)). Embryos treated in vivo with the peptide inhibitors appeared to develop normally and there were no gross abnormalties. […] 24 hours after treatment there is a similar reduction in the number of pyknotic cells and a significant increase in the number of healthy motoneurons (Table 6B). […] The ability of ICE inhibitors to block the naturally occurring cell death of interdigital cells in the developing limb was also studied. These cells undergo PCD as a means of sculpting the digits in many vertebrates. When embryos were treated with either ICE inhibitor on embryonic days, E6 and E7, there was a substantial reduction in the number of pyknotic cells between the digits of the hindlimb (FIG. 14).
Peptides. Two peptide inhibitors of ICE, Acetyl-Tyr-Val-Ala-Asp-aldehyde (Ac-YVAD-CHO) and Acetyl-Tyr-Val-Ala-Asp-chloromethylketone (Ac-YVAD-CMK) and two control peptide inhibitors, Acetyl-Leu-Leu-Arg-aldehyde (Ac-LLR-CHO; Leupeptin) and n-tosyl-Lys-chloromethyl-ketone (Tos-Lys-CMK) were synthesized by Bachem Biosciences (King of Prussia, Pa.) and shown by thin layer chromatography and HPLC to be greater than 98% pure. […] Methods for administration of peptides to examine effects on naturally occurring motoneuron cell death in vivo. Although cell death of lumbar motoneurons occurs between E6 and E12, the peak period of death (i.e., the greatest number of pyknotic cells) occurs on E8 (Oppenheim et al., J Comp. Neurol. 177:87-112 (1978)). For these experiments, embryos were given a single administration of an agent on E8 0 hr and sacrificed 15 hours later. […] Ac-YVAD-CMK and Tos-Lys-CMK were administered in a solution of DMSO/BSA, whereas Ac-YVAD-CHO and leupeptin (Sigma) were in BSA alone. The solutions (50-100 μl) were dropped onto the highly vascularized chorioallantoic membrane through a window in the shell. The control groups included both DMSO and BSA or vehicle alone. Embryos were killed and staged by the Hamburger-Hamilton series (Hamburger and Hamilton, J. Morph. 88:49-92 (1951)). The thoraco-lumbar spinal cord was dissected, fixed in Camoys or Bouins fixative, processed for paraffin histology, serially sectioned (10-12 μm) and stained with either thionin or hematoxylin and eosin. Pyknotic motoneurons were identified based on criteria previously described (Chu-Wang and Oppenheim, J. Comp. Neurol. 177:33-58 (1978); Clarke and Oppenheim In Methods in Cell Biology Series; Cell Death; eds: Schwartz and Osborne. Academic Press. New York, N.Y. In press.) and were counted in every 10th or 20th section through the entire lumbar enlargement. The total number of pyknotic cells were then estimated by multiplying these values by 10 or 20. All cell counts were performed by individuals blinded with regard to drug treatment of the embryos. Methods for limb bud removal experiments. A unilateral limb bud removal was performed on E2 as described previously (Oppenheim et al., J. Comp. Neurol. 177:87-112 (1978)). Because induced cell death following limb removal begins on E5 (before that there is no difference in the number of motoneurons between the operated or unoperated sides) embryos were given one treatment of Ac-YVAD-CHO (40 μg) or BSA (control) at E5-0 hr and another at E5-12 hours (total peptide administered was 80 μg). Animals were killed at E6-0 hr. Methods were the same as described above except the section thickness was 6-8 μm (see Method for Administration of Peptides, above). Methods for limb bud interdigital regions. […]

Assay [2] deals with cervical motoneurons. As to the kind of experiment: Cervical motoneuron cell death in vivo. More on the design: species or system chick. The following applies: for Pyknotic Cervical Motoneurons on E4.5: mean ±SD. The source says:
The ability of the ICE inhibitors to block cell death in two classes of neurons whose naturally occurring death appears to be independent of target interaction was also studied. First, motoneurons in the cervical spinal cord undergo PCD between E4 and E5, with maximum levels occurring at E4.5.

The target in assay [3] is T1, ICE (Homo sapiens, UniProt P29466).
T1 sequence (P29466 120-297): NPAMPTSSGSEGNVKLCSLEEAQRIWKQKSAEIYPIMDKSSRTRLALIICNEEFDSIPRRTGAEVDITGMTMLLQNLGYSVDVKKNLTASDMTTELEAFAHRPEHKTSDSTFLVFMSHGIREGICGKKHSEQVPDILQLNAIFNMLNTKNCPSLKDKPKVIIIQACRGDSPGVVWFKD
T1 sequence (P29466 317-404): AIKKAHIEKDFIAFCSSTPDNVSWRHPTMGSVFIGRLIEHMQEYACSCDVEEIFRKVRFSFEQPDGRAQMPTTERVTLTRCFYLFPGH
The following applies: protease activity of ICE; cited from earlier work.

The test system of assay [4] is undifferentiated neurons and precursor cells in the neural tube. The assay is described as follows: Cell death in the early neural tube in vivo. More on the design: species or system chick.
For assay [5], the system named is chick spinal motoneurons. As to the kind of experiment: Motoneuron culture deprived of muscle extract, survival. In kind it is cell-based. The settings on record: without muscle extract, treated between 14 and 24 hours, counted after 3 days. The source says:
A tissue culture model system that allows isolation of a relatively pure population of motoneurons whose survival is dependent on muscle extract, a potent source of target-derived trophic support, was used to test the ability of peptide inhibitors of ICE to block motoneuron cell death (Milligan et al., J Neurobiology 25:1005-1016 (1994) and Block-Gallego et al., Development. 111:221-232 (1991)). The death of motoneurons deprived of trophic support in vitro requires new gene expression and occurs by apoptosis (Milligan et al., J. Neurobiology 25:1005-1016 (1994)). Motoneurons deprived of trophic support at the time of plating become irreversibly committed to undergo cell death after 16-18 hours (Milligan et al., J. Neurobiology 25:1005-1016 (1994)). […] When motoneurons are treated with peptide inhibitors in the absence of muscle extract for three days and subsequently supplemented on day three with muscle extract, they continue to survive, and by six days appear as healthy and differentiated as the motoneurons that were continuously supplied with muscle extract (FIGS. 12A, 12B, 15G). Thus, motoneurons rescued for 3 days by ICE inhibitors remain capable of responding to trophic factors present in muscle extract.
Methods for motoneuron cultures. […]

pKi: −log10 of the molar value. Square brackets hold non-standard residues; d marks the D form. * marks the point of attachment. CH2Cl = ClC*

For `CC(=O)N[C@@H](CC(C)C)C(=O)N[C@@H](CC(C)C)C(=O)N[C@H](C=O)CCCNC(=N)N` [Leupeptin, Acetyl-Leu-Leu-Arg-aldehyde], in assay [1], the “Pyknotic Lumbar Motoneurons on E8” value turned out to be 310 ± 40, the “Healthy Motoneurons (lumbar) on E9” value was 14,117 ± 971 and the “Pyknotic Motoneurons (lumbar) on E9” value was found to be 297 ± 51. Moreover, in assay [2], the “Pyknotic Cervical Motoneurons on E4.5” value worked out at 32.5 ± 7.9.
`Cc1ccc(S(=O)(=O)NC(CCCCN)C(=O)CCl)cc1` (stereo not drawn) [Tos-Lys-CMK, n-tosyl-Lys-chloromethyl-ketone]: in assay [1], the “Pyknotic Lumbar Motoneurons on E8” value stood at 285 ± 31, the “Healthy Motoneurons (lumbar) on E9” value is 13,257 ± 773 and the “Pyknotic Motoneurons (lumbar) on E9” value stood at 345 ± 39.
As for “Ac-Tyr-Val-Lys-Asp-CHO (Ac-YVKD-aldehyde; SMILES CC(=O)N[C@@H](Cc1ccc(O)cc1)C(=O)N[C@H](C(=O)N[C@@H](CCCCN)C(=O)N[C@H](C=O)CC(=O)O)C(C)C) [Inhibitor D]”, the pKi in assay [3] is 8.52.
For Ac-Y[dA]AD-aldehyde [Inhibitor C], in assay [3], the pKi was 5.82.
In the case of “Acetyl-Tyr-Val-Ala-Asp-chloromethylketone (Ac-YVAD-CH2Cl) [Ac-YVAD-CMK]”, the “survival promoting effects on floorplate or dorsal spinal cord cells” value in assay [4] (compared to control animals) was “no survival promoting effects”. Besides, in assay [4] (mean ±SD), the “Pyknotic Cells in the Early Neural Tube, Dorsal Spinal Cord” value is recorded as 1.372 ± 0.235 and the “Pyknotic Cells in the Early Neural Tube, Floor Plate” value is on record as 0.872 ± 0.201. In addition, in assay [1], the “Pyknotic Lumbar Motoneurons on E8” value turned out to be 216 ± 27, the “Healthy Motoneurons (lumbar) on E9” value is 16,231 ± 755 and the “Pyknotic Motoneurons (lumbar) on E9” value is 200 ± 33. The motoneuron death result in assay [5] is listed as “inhibitory effects on motoneuron death”. Besides, in assay [2] (compared to control or Ac-LLR-CHO treated animals), the “survival promoting effects on cervical motoneurons” value is recorded as “no survival promoting effects”. In addition, in assay [2], the “Pyknotic Cervical Motoneurons on E4.5” value was determined as 26.7 ± 2.2.
